The source made the active and inactive calls.
Legend:
cells [1] = assay type: functional, cell-based
cells [2] = assay type: functional, cell-based; remark: listed apart in the source
[3] = growth suppression of PTEN-null colon cells, dose response, cell-based, HCT116 PTEN knockout (AID 1047); assay type: functional;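 note: HCT116 colon tumor cells with PTEN knocked out; cells exposed to compound for 60 hours before readout; potency for loss of cell viability measured by luminescence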
[4] = growth suppression of beta-catenin-knockout colon cells, dose response, cell-based, HCT116, human colon tumor (AID 1045); assay type: functional;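 note: HCT116 colon tumor cells with beta catenin knocked out; cells exposed to compound for 60 hours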
[5] = Luminescence Cell-Based Dose Retest to Confirm Inhibitors of Cancer Stem Cells. [Related pubchem assays (depositor defined):AID2717, AID2721]; assay type: functional; settings: Homo sapiens
[6] = molecular target: Neurotensin receptor type 1 (Homo sapiens, UniProt P30989); assay type: functional;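 note: Image-based confirmatory dose-response assay measuring agonist activity at NTR1; NTR1-expressing U2OS osteosarcoma cells imaged for beta-arrestin GFP spot formation; agonist potency where compounds increase beta-arrestin recruitment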
INS1 = assay: beta cell apoptosis inhibitors, cytokine rescue, dose response, luminescence, retest (AID 449756); assay type: functional, cell-based; settings: Rattus norvegicus;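 note: cell death triggered by IL-1 beta plus TNF-alpha plus IFN-gamma mixture; protective hits raise ATP signal compared with cytokine alone wells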
Paired box protein Pax-8 = Paired box protein Pax-8 (Homo sapiens, UniProt Q06710); assay: inhibitors of PAX8-driven TPO luciferase reporter, dose response, RMG-I cells, cherry-pick (AID 687027); assay type: functional, cell-based;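 note: luciferase reporter driven by Pax8 target thyroperoxidase promoter measured by SteadyGlo luminescence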
[7] = IGROV1 ovarian cancer cell cytotoxicity, dose response, PAX8 inhibitor project, plate reader, dry powder samples (AID 743043); assay type: functional, cell-based; settings: IGROV-1
[8] = A cytotoxicity screen of small molecule inhibitors of the PhoP region in Salmonella typhi identified in the primary screen. [Related pubchem assays: 1850, 1864, 1985 ]; assay type: functional
[9] = molecular target: T1, Short transient receptor potential channel 4 (Mus musculus, UniProt Q9QUQ5); assay: mouse TRPC4 channel activators, dose response, cell-based, HEK293 TRPC4/mu-opioid, Fluo-4 calcium (AID 434937); assay type: functional
T1 sequence (Q9QUQ5 whole entry): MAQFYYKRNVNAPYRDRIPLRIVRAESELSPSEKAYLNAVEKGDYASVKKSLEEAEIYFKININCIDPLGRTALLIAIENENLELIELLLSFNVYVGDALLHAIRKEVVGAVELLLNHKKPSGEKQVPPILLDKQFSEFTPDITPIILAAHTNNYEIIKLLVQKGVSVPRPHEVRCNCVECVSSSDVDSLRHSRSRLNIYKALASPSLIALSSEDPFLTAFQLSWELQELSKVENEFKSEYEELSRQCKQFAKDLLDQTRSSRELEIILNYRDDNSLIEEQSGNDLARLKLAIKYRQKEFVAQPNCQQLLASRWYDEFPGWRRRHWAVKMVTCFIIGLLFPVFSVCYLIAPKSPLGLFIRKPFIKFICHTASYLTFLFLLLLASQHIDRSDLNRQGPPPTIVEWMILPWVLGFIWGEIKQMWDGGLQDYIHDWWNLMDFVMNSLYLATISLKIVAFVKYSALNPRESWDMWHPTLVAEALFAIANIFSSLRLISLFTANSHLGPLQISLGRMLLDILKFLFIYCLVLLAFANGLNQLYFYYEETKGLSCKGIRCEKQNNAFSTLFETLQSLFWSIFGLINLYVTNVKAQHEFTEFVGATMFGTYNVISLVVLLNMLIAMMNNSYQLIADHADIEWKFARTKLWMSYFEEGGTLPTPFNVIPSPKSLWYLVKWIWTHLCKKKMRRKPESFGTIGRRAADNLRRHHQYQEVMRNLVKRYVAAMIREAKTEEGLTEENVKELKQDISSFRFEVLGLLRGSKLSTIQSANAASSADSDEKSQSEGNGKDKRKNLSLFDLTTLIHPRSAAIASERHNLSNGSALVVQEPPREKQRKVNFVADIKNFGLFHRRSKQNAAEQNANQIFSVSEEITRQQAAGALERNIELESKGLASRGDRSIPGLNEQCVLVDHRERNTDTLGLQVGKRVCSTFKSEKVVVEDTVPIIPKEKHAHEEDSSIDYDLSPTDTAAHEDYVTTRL

[10] = intracellular Trypanosoma cruzi inhibitors in host cells – cell-based, plate reader, cherry-pick samples, set 3, dose response (AID 651818); assay type: functional;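 note: compounds incubated with infected cells for about four days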
Leucine aminopeptidase = molecular target: T2, Leucine aminopeptidase (Plasmodium falciparum 3D7, UniProt Q8IL11); assay: P. falciparum M17LAP inhibitors, primary screen, biochemical, fluorogenic H-Leu-NHMec substrate, 1536-well (AID 1619); assay type: functional
T2 sequence (Q8IL11 whole entry): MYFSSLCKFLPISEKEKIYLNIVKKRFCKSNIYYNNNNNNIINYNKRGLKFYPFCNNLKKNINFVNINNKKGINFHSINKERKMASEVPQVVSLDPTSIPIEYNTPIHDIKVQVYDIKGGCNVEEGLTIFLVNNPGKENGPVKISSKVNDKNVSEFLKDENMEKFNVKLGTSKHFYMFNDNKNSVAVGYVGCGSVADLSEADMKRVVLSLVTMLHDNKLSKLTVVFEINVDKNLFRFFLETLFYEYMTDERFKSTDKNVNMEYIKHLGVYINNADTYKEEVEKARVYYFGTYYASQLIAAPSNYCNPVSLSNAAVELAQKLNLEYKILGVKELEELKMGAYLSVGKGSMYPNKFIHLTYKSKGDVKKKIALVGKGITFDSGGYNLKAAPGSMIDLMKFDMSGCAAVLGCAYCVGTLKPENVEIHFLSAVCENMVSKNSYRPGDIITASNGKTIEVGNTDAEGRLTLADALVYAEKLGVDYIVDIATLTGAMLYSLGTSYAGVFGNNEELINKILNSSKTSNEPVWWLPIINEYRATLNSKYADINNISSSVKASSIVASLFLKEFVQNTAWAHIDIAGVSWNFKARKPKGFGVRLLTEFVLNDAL

Cytochrome P450 3A4 = Cytochrome P450 3A4 (Homo sapiens, UniProt P08684); settings: Potency;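 note: confirmatory qHTS run detecting inhibitors and substrates of CYP3A4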
Cytochrome P450 3A4, sequence (P08684 whole entry): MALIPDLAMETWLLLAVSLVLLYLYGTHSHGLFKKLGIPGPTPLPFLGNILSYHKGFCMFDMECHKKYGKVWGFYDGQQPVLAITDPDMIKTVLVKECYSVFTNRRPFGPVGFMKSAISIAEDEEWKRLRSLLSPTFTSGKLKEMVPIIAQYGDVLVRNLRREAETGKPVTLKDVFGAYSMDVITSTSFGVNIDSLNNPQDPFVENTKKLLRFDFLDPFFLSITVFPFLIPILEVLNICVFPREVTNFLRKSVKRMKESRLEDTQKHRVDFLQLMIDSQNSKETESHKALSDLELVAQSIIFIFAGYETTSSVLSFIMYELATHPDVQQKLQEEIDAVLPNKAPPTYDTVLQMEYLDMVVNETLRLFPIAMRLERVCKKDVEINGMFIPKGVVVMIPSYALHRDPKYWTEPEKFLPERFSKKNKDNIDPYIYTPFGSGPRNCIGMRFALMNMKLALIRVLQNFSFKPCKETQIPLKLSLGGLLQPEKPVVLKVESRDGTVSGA

Neurotensin receptor type 1, sequence (P30989 whole entry): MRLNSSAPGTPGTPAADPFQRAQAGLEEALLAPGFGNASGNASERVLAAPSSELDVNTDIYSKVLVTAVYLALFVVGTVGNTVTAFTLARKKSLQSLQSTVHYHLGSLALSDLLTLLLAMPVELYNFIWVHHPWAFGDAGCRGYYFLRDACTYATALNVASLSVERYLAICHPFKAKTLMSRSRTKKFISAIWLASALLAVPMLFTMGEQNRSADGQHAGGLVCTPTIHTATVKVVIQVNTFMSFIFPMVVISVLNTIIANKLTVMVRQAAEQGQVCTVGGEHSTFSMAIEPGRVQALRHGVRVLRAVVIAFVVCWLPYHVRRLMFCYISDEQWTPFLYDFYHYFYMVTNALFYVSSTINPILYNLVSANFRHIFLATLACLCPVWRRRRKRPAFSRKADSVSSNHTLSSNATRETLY
Paired box protein Pax-8, sequence (Q06710 whole entry): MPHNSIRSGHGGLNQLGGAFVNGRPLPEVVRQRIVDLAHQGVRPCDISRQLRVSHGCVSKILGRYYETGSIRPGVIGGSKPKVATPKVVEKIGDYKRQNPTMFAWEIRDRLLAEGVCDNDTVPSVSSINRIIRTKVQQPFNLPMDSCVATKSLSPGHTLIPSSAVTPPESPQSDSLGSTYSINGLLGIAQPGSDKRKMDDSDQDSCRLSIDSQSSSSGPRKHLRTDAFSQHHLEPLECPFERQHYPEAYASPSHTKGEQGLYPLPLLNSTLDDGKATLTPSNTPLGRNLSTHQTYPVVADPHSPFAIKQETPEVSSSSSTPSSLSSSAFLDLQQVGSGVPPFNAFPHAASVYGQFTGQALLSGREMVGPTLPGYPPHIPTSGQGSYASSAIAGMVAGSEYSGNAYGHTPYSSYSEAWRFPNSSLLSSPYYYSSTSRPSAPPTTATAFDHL

Structure (SMILES): C(=NOCCc1ccccc1)c1cccnc1
- IC50 (cells [1]): > 29.8 µM (inactive)
- EC50 (cells [2]): > 29.8 µM (inactive)

Structure (SMILES): Cc1cc(C)cc(N2C(=O)NC(=O)/C(=C/c3cccn3-c3ccc(Cl)cc3)C2=O)c1
- EC50 [3]: 31.6 µM (active)
- EC50 [4]: 26.1 µM (active)
- AC50 [5]: 1.04 µM (active)
- EC50 [6]: 10.6 µM (active)

Structure (SMILES): O=C(c1ccc(Cl)cc1)C(CN1CCCCC1)c1ccccc1 (stereo not given)
- EC50 [6]: 14.7 µM (active)
- AC50 (INS1): 19.4 µM (active)

Structure (SMILES): C[C@@H]1CCCCO[C@@H](CN(C)S(=O)(=O)c2ccc(Cl)cc2)[C@H](C)CN([C@H](C)CO)C(=O)c2cc(NS(=O)(=O)c3ccc(F)cc3)ccc2O1
- AC50 (Paired box protein Pax-8): 3.41 µM (active)
- AC50 [7]: 57.7 µM (active)

Structure (SMILES): CC(c1cccnc1)N(CCN(C)C)C(=O)Nc1ccc(Cl)c(Cl)c1 (stereo not given)
- EC50 [8]: > 50 µM (active)
- EC50 [9]: 1.5 µM (active)

Structure (SMILES): COc1ccc(S(=O)(=O)Nc2ccc3c(c2)CC(=O)N([C@@H](C)CO)C[C@@H](C)[C@@H](CN(C)Cc2ccc(C(F)(F)F)cc2)O3)cc1
- AC50 [10]: 5.93 µM (active)

Structure (SMILES): Cc1cccc(CN2C3=NCCCN3c3ccccc32)c1
- EC50 [8]: > 50 µM (active)

Structure (SMILES): Cc1cc(Cl)nc(Cl)c1C(=O)NCCc1ccccc1
- IC50 (cells [1]): > 29.9 µM (inactive)
- EC50 (cells [2]): > 29.9 µM (inactive)

Structure (SMILES): O=C1CC(=O)C(n2cncn2)C(c2ccc(Cl)cc2Cl)C1 (stereo not given)
- IC50 (Leucine aminopeptidase): 17.9 µM (active)

Structure (SMILES): C[C@H](CO)N1C[C@H](C)[C@H](CN(C)Cc2ccc(C(=O)Nc3ccccc3N)cc2)Oc2c(cccc2N(C)C)C1=O
- AC50 [10]: 3.67 µM (active)

Structure (SMILES): COc1ccc(CNC(=O)C2CC(C)=C(C)CC2C(=O)O)cc1 (stereo not given)
- IC50 (Leucine aminopeptidase): 43.7 µM (active)

Structure (SMILES): COc1ccc(C2Oc3cc(OC)cc(OC)c3CC2O)cc1 (stereo not given)
- AC50 (Cytochrome P450 3A4): 20 µM (inconclusive)
